What all share (format): biochemical
In one experiment the target is T1, JAK2 (Homo sapiens, UniProt O60674).
T1 construct: 5 μl of catalytic domain recombinant Kinase enzyme+Tyr peptide substrate (Invitrogen, Calif.); purchased Invitrogen
Nature of the experiment: Z'-LYTE kinase assay, JAK2 tyrosine phosphorylation activity. The method in brief: (§1)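 Z'-LYTE format using the Tyr6 peptide with recombinant catalytic-domain kinase; 1 h kinase reaction and 1 h development, both at room temperature. IC50s derived from ratiometric FRET signal.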

In the next experiment the target is T2, TYK2 (Homo sapiens, UniProt P29597).
T2 construct: 5 μl of catalytic domain recombinant Kinase enzyme+Tyr peptide substrate (Invitrogen, Calif.); purchased Invitrogen
T2 sequence (P29597 897-1176 limits assumed): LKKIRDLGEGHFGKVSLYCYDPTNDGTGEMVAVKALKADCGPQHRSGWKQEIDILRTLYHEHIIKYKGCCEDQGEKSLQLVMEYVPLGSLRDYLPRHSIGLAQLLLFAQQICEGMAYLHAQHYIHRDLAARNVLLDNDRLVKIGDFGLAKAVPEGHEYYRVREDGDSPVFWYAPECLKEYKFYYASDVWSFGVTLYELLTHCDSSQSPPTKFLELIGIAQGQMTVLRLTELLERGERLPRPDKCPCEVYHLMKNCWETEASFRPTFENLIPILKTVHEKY
Nature of the experiment: Z'-LYTE kinase assay, TYK2 tyrosine phosphorylation activity. The method in brief: as §1

The target in a further experiment is T3, JAK1 (Homo sapiens, UniProt P23458).
T3 construct: 5 μl of catalytic domain recombinant Kinase enzyme+Tyr peptide substrate (Invitrogen, Calif.); purchased Invitrogen
T3 sequence (P23458 875-1153 limits assumed): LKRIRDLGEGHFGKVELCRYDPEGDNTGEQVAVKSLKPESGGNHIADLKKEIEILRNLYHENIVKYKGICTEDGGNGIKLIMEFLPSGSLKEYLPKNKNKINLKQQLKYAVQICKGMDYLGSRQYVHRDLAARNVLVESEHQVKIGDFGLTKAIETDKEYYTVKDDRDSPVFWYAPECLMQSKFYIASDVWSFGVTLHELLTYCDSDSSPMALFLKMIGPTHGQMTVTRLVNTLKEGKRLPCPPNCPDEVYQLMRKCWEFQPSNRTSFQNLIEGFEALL
Nature of the experiment: Z'-LYTE kinase assay, JAK1 tyrosine phosphorylation activity. The conditions noted are these: read-out: JAK 1 IC50. The method, boiled down:
as §1

The target in a further experiment is T4, JAK3 (Homo sapiens, UniProt P52333).
T4 construct: 5 μl of catalytic domain recombinant Kinase enzyme+Tyr peptide substrate (Invitrogen, Calif.); purchased Invitrogen
T4 sequence (P52333 822-1111 limits assumed): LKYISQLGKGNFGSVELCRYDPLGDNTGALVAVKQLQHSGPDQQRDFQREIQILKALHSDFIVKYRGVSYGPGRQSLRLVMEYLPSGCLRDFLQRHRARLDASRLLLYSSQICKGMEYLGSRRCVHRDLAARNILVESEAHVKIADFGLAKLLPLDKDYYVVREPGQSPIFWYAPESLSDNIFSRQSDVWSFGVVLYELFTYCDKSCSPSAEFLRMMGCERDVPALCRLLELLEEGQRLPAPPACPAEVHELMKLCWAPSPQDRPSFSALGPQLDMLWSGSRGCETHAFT
Nature of the experiment: Z'-LYTE kinase assay, JAK3 tyrosine phosphorylation activity. The method in brief: as §1

T1 sequence (O60674 849-1124 limits assumed): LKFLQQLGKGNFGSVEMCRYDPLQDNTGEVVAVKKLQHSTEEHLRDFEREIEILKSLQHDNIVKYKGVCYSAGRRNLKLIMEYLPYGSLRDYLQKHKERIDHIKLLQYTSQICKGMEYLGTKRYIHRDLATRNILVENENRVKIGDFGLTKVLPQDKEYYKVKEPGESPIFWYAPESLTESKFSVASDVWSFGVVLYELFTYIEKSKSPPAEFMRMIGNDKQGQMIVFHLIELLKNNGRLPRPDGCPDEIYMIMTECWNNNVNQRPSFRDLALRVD

As to `NC(=O)c1cnc(Nc2ccc(Cl)c(NC(=O)N3CCCC3)c2)nc1NCC1CC1` [Example 174, 2-(4-chloro-3-(pyrrolidine-1-carboxamido)phenylamino)-4-(cyclopropylmethylamino)pyrimidine-5-carboxamide], the IC50 was 0.1 to 1 µM on JAK2, 0.01 to 0.1 µM on TYK2, 0.01 to 0.1 µM at JAK1 and 0.01 to 0.1 µM against JAK3.

Consider `CCC(C)CNc1nc(Nc2cccc(NC(C)=O)c2)ncc1C(N)=O` (stereo not shown) [Example 249, 2-(3-acetamidophenylamino)-4-(2-methylbutylamino)pyrimidine-5-carboxamide], for which the concentration for half-maximal inhibition (IC50) was 0.001 to 0.01 µM at JAK2, 0.001 to 0.01 µM against TYK2, 0.01 to 0.1 µM on JAK1 and less than 0.001 µM at JAK3.

Regarding `CCC(C)CNc1nc(Nc2ccc(Cl)c(NC(=O)N3CCCC3)c2)ncc1C(N)=O` (stereo not shown) [Example 250], the concentration for half-maximal inhibition (IC50) is 0.1 to 1 µM at JAK2, 0.01 to 0.1 µM against TYK2, 0.01 to 0.1 µM on JAK1 and 0.001 to 0.01 µM at JAK3.

On to `CC[C@H](C)Nc1nc(Nc2ccc(Cl)c(NC(=O)N3CCCC3)c2)ncc1C(N)=O` [Example 176, (S)-4-(sec-butylamino)-2-(4-chloro-3-(pyrrolidine-1-carboxamido)phenylamino)pyrimidine-5-carboxamide], for which the half-inhibitory concentration (IC50) on JAK2 lay in the range of 0.1 to 1 µM; against TYK2, 0.01 to 0.1 µM; on JAK1, 0.01 to 0.1 µM; against JAK3, 0.01 to 0.1 µM.

On to `CC(=O)Nc1cccc(Nc2ncc(C(N)=O)c(Nc3ccc(S(C)(=O)=O)cc3)n2)c1` [Example 197], for which the IC50 is 0.01 to 0.1 µM at JAK2, 0.01 to 0.1 µM against TYK2, greater than 1 µM on JAK1 and 0.01 to 0.1 µM at JAK3.

Take `CC(C)CCNc1cc(Nc2cccc(NC(=O)N3CCCC3)c2)ncc1C(N)=O` [Example 328, 4-(isopentylamino)-6-(3-(pyrrolidine-1-carboxamido)phenylamino)nicotinamide]: the half-inhibitory concentration (IC50) is 0.1 to 1 µM against JAK2, 0.01 to 0.1 µM on TYK2, 0.1 to 1 µM on JAK1 and 0.01 to 0.1 µM at JAK3.

For the molecule `CCNc1nc(Nc2cccc(NC(=O)N3CCCC3)c2)ncc1C(N)=O` [Example 134, 4-(ethylamino)-2-(3-(pyrrolidine-1-carboxamido)phenylamino)pyrimidine-5-carboxamide], the IC50 was in the range of 0.01 to 0.1 µM against JAK2, 0.01 to 0.1 µM on TYK2, 0.01 to 0.1 µM at JAK1 and 0.001 to 0.01 µM at JAK3.

With `CC(=O)Nc1cccc(Nc2ncc(C(N)=O)c(NCc3ccc(F)cc3)n2)c1` [Example 103, 2-(3-acetamidophenylamino)-4-(4-fluorobenzylamino)pyrimidine-5-carboxamide], the IC50 was 0.01 to 0.1 µM against JAK2, 0.01 to 0.1 µM against TYK2, 0.1 to 1 µM at JAK1 and 0.01 to 0.1 µM against JAK3.

Consider `CC(=O)Nc1cccc(Nc2ncc(C(N)=O)c(NCC3CCCN(S(C)(=O)=O)C3)n2)c1` (stereo not shown) [Example 120, 2-(3-acetamidophenylamino)-4-((1-(methylsulfonyl)piperidin-3-yl)methylamino)pyrimidine-5-carboxamide], for which the half-inhibitory concentration (IC50) at JAK2 was 0.01 to 0.1 µM; at TYK2 it was 0.01 to 0.1 µM; at JAK1, 0.01 to 0.1 µM; at JAK3, 0.001 to 0.01 µM.

On to `CN1CCN(C(=O)Nc2cccc(Nc3ncc(C(N)=O)c(NCc4cccc(F)c4)n3)c2)CC1` [Example 258, 4-(3-fluorobenzylamino)-2-(3-(4-methylpiperazine-1-carboxamido)phenylamino)pyrimidine-5-carboxamide], for which the IC50 against JAK2 was 0.001 to 0.01 µM; on TYK2, 0.001 to 0.01 µM; at JAK1, 0.01 to 0.1 µM; at JAK3, less than 0.001 µM.

In the case of `CC[C@H](C)Nc1nc(Nc2cccc(NC(=O)N3CCCC3)c2)ncc1C(N)=O` [Example 145], the IC50 against JAK2 lay within 0.01 to 0.1 µM; against TYK2 it was 0.01 to 0.1 µM; on JAK1 it was 0.01 to 0.1 µM; against JAK3, 0.001 to 0.01 µM.

Consider `NC(=O)c1cnc(Nc2ccc(N3CCCC3)c(NC(=O)N3CCCC3)c2)nc1NCc1ccccc1` [Example 159, 4-(benzylamino)-2-(4-(pyrrolidin-1-yl)-3-(pyrrolidine-1-carboxamido)phenylamino)pyrimidine-5-carboxamide], for which the IC50 against JAK2 lay within 0.01 to 0.1 µM; on TYK2, 0.01 to 0.1 µM; on JAK1 it was 0.1 to 1 µM; against JAK3, 0.001 to 0.01 µM.

As for `NC(=O)c1cnc(Nc2cccc(NC(=O)N3CCOCC3)c2)nc1NCc1cccc(F)c1` [Example 259], the 50% inhibitory concentration (IC50) against JAK2 lay in the range of 0.001 to 0.01 µM; on TYK2, 0.001 to 0.01 µM; at JAK1 it was 0.01 to 0.1 µM; on JAK3 it was 0.001 to 0.01 µM.

Consider `CC(=O)N(c1cccc(Nc2ncc(C(N)=O)c(N[C@H](C)c3ccccc3)n2)c1)C1CC1` [Example 161, (R)-2-(3-(N-cyclopropylacetamido)phenylamino)-4-(1-phenylethylamino)pyrimidine-5-carboxamide], for which the IC50 on JAK2 is 0.01 to 0.1 µM; against TYK2, 0.1 to 1 µM; on JAK1 it was 0.1 to 1 µM; on JAK3, 0.001 to 0.01 µM.

As for `CC[C@@H](C)Nc1nc(Nc2ccc(Cl)c(NC(=O)N3CCCC3)c2)ncc1C(N)=O` [Example 237, (R)-4-(sec-butylamino)-2-(4-chloro-3-(pyrrolidine-1-carboxamido)phenylamino)pyrimidine-5-carboxamide], the 50% inhibitory concentration (IC50) against JAK2 was in the range of 0.01 to 0.1 µM; against TYK2, 0.01 to 0.1 µM; on JAK1, 0.01 to 0.1 µM; against JAK3 it was 0.001 to 0.01 µM.

As for `CC(=O)Nc1cccc(Nc2cc(NC3CCCC3)c(C(N)=O)cn2)c1` [Example 330, 6-(3-acetamidophenylamino)-4-(cyclopentylamino)nicotinamide], the IC50 against JAK2 fell in the range of 0.1 to 1 µM; against TYK2, 0.01 to 0.1 µM; at JAK1, 0.1 to 1 µM; at JAK3, 0.1 to 1 µM.

As to `CC(=O)Nc1cccc(Nc2cc(NCc3cccc(F)c3F)c(C(N)=O)cn2)c1` [Example 336, 6-(3-acetamidophenylamino)-4-(2,3-difluorobenzylamino)nicotinamide], the IC50 against JAK2 lay in the range of 0.1 to 1 µM; on TYK2 it was 0.1 to 1 µM; at JAK1, 0.1 to 1 µM; at JAK3, 0.001 to 0.01 µM.

For the molecule `CC(=O)Nc1cccc(Nc2ncc(C(N)=O)c(N[C@H](C)C(C)C)n2)c1` [Example 252, (R)-2-(3-acetamidophenylamino)-4-(3-methylbutan-2-ylamino)pyrimidine-5-carboxamide], the IC50 on JAK2 was 0.001 to 0.01 µM; against TYK2 it was less than 0.001 µM; on JAK1 it was 0.001 to 0.01 µM; against JAK3 it was less than 0.001 µM.

As to `C[C@@H](Nc1nc(Nc2ccc(Cl)c(NC(=O)N3CCCCC3)c2)ncc1C(N)=O)c1ccccc1` [Example 205, (R)-2-(4-chloro-3-(piperidine-1-carboxamido)phenylamino)-4-(1-phenylethylamino)pyrimidine-5-carboxamide], the IC50 was 0.1 to 1 µM at JAK2, 0.1 to 1 µM on TYK2, greater than 1 µM at JAK1 and 0.01 to 0.1 µM at JAK3.

Take `CNC(=O)Nc1cc(Nc2ncc(C(N)=O)c(NC3CCCC3)n2)ccc1Cl` [Example 166, 2-(4-chloro-3-(3-methylureido)phenylamino)-4-(cyclopentylamino)pyrimidine-5-carboxamide]: the IC50 on JAK2, against TYK2, at JAK1 and against JAK3 was 0.01 to 0.1 µM each time.

Consider `CC(=O)Nc1cccc(Nc2ncc(C(N)=O)c(Nc3ccc(N4CCOCC4)c(F)c3)n2)c1` [Example 198], for which the half-inhibitory concentration (IC50) on JAK2 is 0.01 to 0.1 µM; at TYK2 it was 0.01 to 0.1 µM; on JAK1, greater than 1 µM; against JAK3, 0.01 to 0.1 µM.

On to `CC(=O)Nc1cccc(Nc2ncc(C(N)=O)c(Nc3cccc4nsnc34)n2)c1` [Example 192, 2-(3-acetamidophenylamino)-4-(benzo[c][1,2,5]thiadiazo-4-ylamino)pyrimidine-5-carboxamide], for which the concentration for half-maximal inhibition (IC50) on JAK2 was 0.01 to 0.1 µM; against TYK2, 0.01 to 0.1 µM; on JAK1, greater than 1 µM; against JAK3 it was 0.001 to 0.01 µM.

In the case of `CC(=O)Nc1cccc(Nc2ncc(C(N)=O)c(NCc3cc(F)ccc3F)n2)c1` [Example 102, 2-(3-acetamidophenylamino)-4-(2,5-difluorobenzylamino)pyrimidine-5-carboxamide], the IC50 against JAK2 fell in the range of 0.01 to 0.1 µM; against TYK2, 0.01 to 0.1 µM; on JAK1 it was 0.1 to 1 µM; against JAK3, 0.001 to 0.01 µM.

As for `CN(C(=O)N1CCCC1)c1cccc(Nc2ncc(C(N)=O)c(NCc3ccccc3)n2)c1` [Example 141, 4-(benzylamino)-2-(3-(N-methylpyrrolidine-1-carboxamido)phenylamino)pyrimidine-5-carboxamide], the IC50 against JAK2 is 0.01 to 0.1 µM; against TYK2, 0.1 to 1 µM; on JAK1, 0.1 to 1 µM; at JAK3 it was 0.001 to 0.01 µM.

For the molecule `C[C@@H](Nc1nc(Nc2cccc(NC(=O)N3CCCCC3)c2)ncc1C(N)=O)c1ccccc1` [Example 220, (R)-4-(1-phenylethylamino)-2-(3-(piperidine-1-carboxamido)phenylamino)pyrimidine-5-carboxamide], the concentration for half-maximal inhibition (IC50) against JAK2 was 0.01 to 0.1 µM; on TYK2, 0.01 to 0.1 µM; on JAK1 it was 0.1 to 1 µM; on JAK3 it was 0.001 to 0.01 µM.

A word on the IC50: it is the point on the concentration scale where inhibition reaches its midpoint.
